The first experiment has as its target T1, CCR(9) (Homo sapiens, UniProt P51686).
T1 construct: CCR(9)-expressing cells such as T cell line MOLT-4 cells; host or cells: MOLT-4 cells
T1 sequence (P51686 1-369): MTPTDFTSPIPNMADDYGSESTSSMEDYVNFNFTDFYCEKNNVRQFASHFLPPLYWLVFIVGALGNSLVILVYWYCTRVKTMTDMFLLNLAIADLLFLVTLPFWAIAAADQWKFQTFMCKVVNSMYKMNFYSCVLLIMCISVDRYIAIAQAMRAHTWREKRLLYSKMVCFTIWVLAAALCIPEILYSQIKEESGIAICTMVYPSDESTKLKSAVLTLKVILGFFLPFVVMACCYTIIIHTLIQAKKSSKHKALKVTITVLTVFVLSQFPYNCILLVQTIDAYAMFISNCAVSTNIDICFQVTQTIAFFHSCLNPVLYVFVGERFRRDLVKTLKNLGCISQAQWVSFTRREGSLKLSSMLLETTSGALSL
The experiment can be described thus: serum chemotaxis (migration) assay, MOLT-4 cells in human serum, TECK. Type of experiment: cell-based. Particulars: read-out: A2. As for the experimental part: In vitro cell chemotaxis assays can be performed (but are not limited to this format) using the 96-well microchamber (called ChemoTX™). The ChemoTX™ system is well known to those skilled in the art as a type of chemotactic/cell migration instrument. In this assay, CCR(9)-expressing cells (such as MOLT-4) are first incubated with a compound of interest, such as a possible CCR(9) antagonist at increasing concentrations. Typically, fifty thousand cells per well are used, but the amount can range from 10^3-10^6 cells per well. The chemokine ligand (for example, CCR(9) ligand TECK, typically at 50 nM (but can range from 5-100 nM)), is placed at the lower chamber and the migration apparatus is assembled. Twenty microliters of test compound-treated cells are then placed onto the membrane. Migration is allowed to take place at 37° C. for a period of time, typically 2.5 hours for CCR(9). At the end of the incubation, the number of cells that migrated across the membrane into the lower chamber is then quantified. The efficacy of a compound as an inhibitor of chemokine-mediated cell migration can be calculated as an IC50 (the concentration needed to reduce cell migration by 50%) or IC90 (for 90% inhibition).
MOLT-4 cells were obtained from the American Type Culture Collection (Manassas, VA) and cultured in RPMI tissue culture medium supplemented with 10% fetal calf serum (FCS) in a humidified 5% CO2 incubator at 37° C. Recombinant human chemokine proteins TECK was obtained from R&D Systems (Minneapolis, MN). ChemoTX® chemotaxis microchambers were purchased from Neuro Probe (Gaithersburg, MD). CyQUANT® cell proliferation kits were purchased from Molecular Probes (Eugene, Oregon). Calcium indicator dye Fluo-4 AM was purchased from Molecular Devices (Mountain View, CA).
A serum chemotaxis assay was used to determine the efficacy of potential receptor antagonists at blocking the migration mediated through chemokine receptors, such as CCR(9). This assay was performed using the ChemoTX® microchamber system with a 5-μm pore-sized polycarbonate membrane. MOLT-4 cells were collected by centrifugation at 400×g at room temperature, then suspended at 50 million/ml in human serum, containing 50 mM HEPES (final pH of 7.2). The compound being tested or an equivalent volume of its solvent (DMSO) was then added to the cell/serum mixture at a final DMSO concentration of 0.125% (v/v), and this mixture was then incubated together at 37° C. for one hour. Separately, recombinant human TECK was diluted with chemotaxis buffer (HBSS+0.1% BSA), generally spanning a range from 0.1 nM to 500 nM, after which 29 μl of diluted chemokine was placed in the lower wells of the ChemoTX® plate. The 5-μm (pore size) polycarbonate membrane was placed onto the plate, and 20 μL of the cell/compound mixture was transferred onto each well of the membrane. The plates were incubated at 37° C. for 90 minutes, after which the polycarbonate membranes were removed and 5 μl of the DNA-intercalating agent CyQUANT (Invitrogen, Carlsbad, CA) was added to the lower wells. The amount of fluorescence, corresponding to the number of migrated cells, was measured using a Spectrafluor Plus plate reader (TECAN, San Jose, CA).
The A2 values were calculated from the following equation, comparing the efficacy of the test compound with that of the DMSO-only control at equi-active chemokine levels: Log(A2)=log[drug(M)]−log [(A′/A)−1]
where A reflects the potency of the agonist in the absence of antagonist and A′ reflects the potency of the agonist in the presence of antagonist at a given concentration of drug ([drug(M)]).
On to `COc1ccc(-n2nc(C)cc2NS(=O)(=O)c2ccc(C(C)(C)C)cc2)c2cccnc12`, for which the IC50 is less than 500 nM.

For `Cc1cc(NS(=O)(=O)c2ccc(C(C)(C)C)cc2)n(-c2cnnc3ccccc23)n1`, the IC50 lay in the range of 501 to 2500 nM.

Regarding `Cc1cc(NS(=O)(=O)c2ccc(OC(C)C)cc2)n(-c2cccc3ncccc23)n1`, the IC50 lay in the range of 501 to 2500 nM.

For a further experiment, the target named is T1, CCR(9). As to the kind of experiment: calcium mobilization assay (FLIPR, MOLT-4 cells, hTECK). The note with it: read-out: CCR(9) Ca^2+. Type of experiment: cell-based. How it is done: In calcium signaling assays used to determine the ability of a compound to interfere with binding between a chemokine receptor and a known chemokine ligand, chemokine receptor-expressing cells (CCR(9)-expressing cells such as T cell line MOLT-4 cells) are first incubated with a compound of interest, such as a potential chemokine antagonist, at increasing concentrations. The cell number can be from 10^5 to 5×10^6 cells per well in a 96-well microtiter plate. The concentration of the compound being tested may range from 0 to 100 μM. After a period of incubation (which can range from 5 to 60 minutes), the treated cells are placed in a Fluorometric Imaging Plate Reader (FLIPR®) (available from Molecular Devices Corp., Sunnyvale, CA) according to the manufacturer's instruction. The FLIPR® system is well known to those skilled in the art as a standard method of performing assays. The cells are then stimulated with an appropriate amount of the chemokine ligand (TECK for CCR(9)) at 5-100 nM final concentration, and the signal of intracellular calcium increase (also called calcium flux) is recorded. The efficacy of a compound as an inhibitor of binding between the […] and the ligand can be calculated as an IC50 (the concentration needed to cause 50% inhibition in signaling) or IC90 (at 90% inhibition). […]
A cytoplasmic calcium mobilization assay was used to determine the efficacy of potential receptor antagonists at blocking the signals mediated through chemokine receptors, such as CCR(9). This assay was routinely performed using the Fluorescent Imaging Plate Reader (FLIPR, Molecular Devices). […] The chemokine agonist (i.e., hTECK), prepared in HBSS at a 5× concentration of the previously determined EC^50 concentration, was added to each well and resulting changes in the fluorescent intensity, indicative of chemokine receptor-mediated signaling, were recorded on the FLIPR.
(Calcium assays in cells follow changes in intracellular calcium, usually with a dye or a luminescent sensor.)
As for `Cc1cc(NS(=O)(=O)c2ccc(C(C)(C)C)cc2)n(-c2ccc3cccnc3c2)n1`, the IC50 was less than 100 nM.

On to `Cc1cc(NS(=O)(=O)c2ccc(C(C)(C)C)cc2Cl)n(-c2cccc3ncccc23)n1`, for which the IC50 is less than 100 nM.

Turning to `CCc1cc(NS(=O)(=O)c2ccc(C(C)(C)C)cc2)n(-c2cccc3ncccc23)n1`, the IC50 is less than 100 nM.

The values above are taken from US12611404B2, “Aza-aryl 1H-pyrazol-1-yl benzene sulfonamides” (ChemoCentryx, Inc., priority 2012, dated 2026).
